According to the SangsterLogP compilation:

For C=C(C)C1(CCCC)C(=O)NC(=O)NC1=O, the logP was 1.65.
For CC=C(C(C)C)C1(C)C(=O)NC(=O)NC1=O, the logP was 1.45.
With C/C=C(\C)C1(C)C(=O)NC(=O)NC1=O the logP was 0.65.
Compound C=C(C)C1(CCC(C)C)C(=O)NC(=O)NC1=O has a logP of 1.95.
For C/C=C(\CC)C1(CC)C(=O)NC(=O)NC1=O, the logP was 1.65.
CC=C(CCC)C1(C)C(=O)NC(=O)NC1=O gave a logP of 1.65.
With C/C=C(\CC)C1(C)C(=O)NC(=O)NC1=O the logP was 1.15.
For C=C(C)C1(CC)C(=O)NC(=O)NC1=O, the logP was 0.65.
C/C=C(/C)C1(CC)C(=O)NC(=O)NC1=O gave a logP of 1.15.
C=C(C)C1(CCCCC)C(=O)NC(=O)NC1=O gave a logP of 2.15.
CC=C(CCCC)C1(C)C(=O)NC(=O)NC1=O gave a logP of 2.15.
CC/C=C(/C)C1(CCC)C(=O)NC(=O)NC1=O gave a logP of 2.15.
For C/C=C(\C)C1(CCC)C(=O)NC(=O)NC1=O, the logP was 1.65.
With C=C(C)C1(C)C(=O)NC(=O)NC1=O the logP was 0.15.
Compound C/C=C(\CC)C1(C(C)C)C(=O)NC(=O)NC1=O has a logP of 1.95.
Compound CC/C=C(\C)C1(C)C(=O)NC(=O)NC1=O has a logP of 1.15.
With CC/C=C(\C)C1(C(C)C)C(=O)NC(=O)NC1=O the logP was 1.95.
In the case of C/C=C(\CC)C1(CCC)C(=O)NC(=O)NC1=O, the logP was 2.15.
CCCC=C(CC)C1(CC)C(=O)NC(=O)NC1=O showed a logP of 2.65.
Compound C=C(C)C1(CC(C)C)C(=O)NC(=O)NC1=O has a logP of 1.45.
C=C(C)C1(CCC)C(=O)NC(=O)NC1=O gave a logP of 1.15.
In the case of CC/C=C(\C)C1(CC)C(=O)NC(=O)NC1=O, the logP was 1.65.
Compound C=CCC1(/C(C)=C/C)C(=O)NC(=O)NC1=O has a logP of 2.15.
Compound CC=C(CCC)C1(CC)C(=O)NC(=O)NC1=O has a logP of 2.15.
In the case of CC=C(CCCC)C1(CCC)C(=O)NC(=O)NC1=O, the logP was 2.65.
